System: K86415-001-R-J1-PDC complex spheroids, viability
Test: Anticancer human tumor K86415-001-R-J1-PDC patient-derived lung adenocarcinoma cell line growth inhibition [RAS]
Conditions: for IC50: curve of first compound; for viability, T/C: stronger effect = lower value
Method in brief: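 Multi-cell-type spheroids: tumor cells plus HUVEC endothelial cells and mesenchymal stem cells. RAS-pathway inhibitors were combined with targeted agents, each dosed in half-log steps down from clinical Cmax, or from 10 microM when Cmax was unknown.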

[1] = second compound 0.00316 µM, first compound 0.0316 µM
[2] = second compound 0.00316 µM, first compound 0.1 µM
[3] = second compound 0.00316 µM, first compound 0.316 µM
[4] = second compound 0.00316 µM, first compound 1 µM
[5] = second compound 0.00316 µM, first compound 3.16 µM
[6] = second compound 0.00316 µM, first compound 10 µM
[7] = second compound 0.01 µM, first compound 0.0316 µM
[8] = second compound 0.01 µM, first compound 0.1 µM
[9] = second compound 0.01 µM, first compound 0.316 µM
[10] = second compound 0.01 µM, first compound 1 µM
[11] = second compound 0.01 µM, first compound 3.16 µM
[12] = second compound 0.01 µM, first compound 10 µM
[13] = second compound 0.0316 µM, first compound 0.0316 µM
[14] = second compound 0.0316 µM, first compound 0.1 µM
[15] = second compound 0.0316 µM, first compound 0.316 µM
[16] = second compound 0.0316 µM, first compound 1 µM
[17] = second compound 0.0316 µM, first compound 3.16 µM
[18] = second compound 0.0316 µM, first compound 10 µM
[19] = second compound 0.1 µM, first compound 0.0316 µM
[20] = second compound 0.1 µM, first compound 0.1 µM
[21] = second compound 0.1 µM, first compound 0.316 µM
[22] = second compound 0.1 µM, first compound 1 µM
[23] = second compound 0.1 µM, first compound 3.16 µM
[24] = second compound 0.1 µM, first compound 10 µM
[25] = second compound 0.316 µM, first compound 0.0316 µM
[26] = second compound 0.316 µM, first compound 0.1 µM
[27] = second compound 0.316 µM, first compound 0.316 µM
[28] = second compound 0.316 µM, first compound 1 µM
[29] = second compound 0.316 µM, first compound 3.16 µM
[30] = second compound 0.316 µM, first compound 10 µM
[31] = second compound 1 µM, first compound 0.0316 µM
[32] = second compound 1 µM, first compound 0.1 µM
[33] = second compound 1 µM, first compound 0.316 µM
[34] = second compound 1 µM, first compound 1 µM
[35] = second compound 1 µM, first compound 3.16 µM
[36] = second compound 1 µM, first compound 10 µM
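Also: spheroids exposed to agents for seven days before readout.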

## Cc1nc(N2CCC3(CC2)COC(C)C3N)c(CO)nc1Sc1ccnc(N)c1Cl (stereo unspecified) + C=CC(=O)N1CCN(c2nc(OCC3CCCN3C)nc3c(F)c(-c4nc(N)cc(C)c4C(F)(F)F)c(Cl)cc23)C(C)C1
Second compound 0.00316 µM
  IC50: < 31.6 nM
Second compound 0.01 µM
  IC50: < 31.6 nM
Second compound 0.0316 µM
  IC50: < 31.6 nM
Second compound 0.1 µM
  IC50: < 31.6 nM
Second compound 0.316 µM
  IC50: < 31.6 nM
Second compound 1 µM
  IC50: < 31.6 nM
[1]
  viability, T/C: 11.5%
[2]
  viability, T/C: 8.95%
[3]
  viability, T/C: 6.72%
[4]
  viability, T/C: 5.03%
[5]
  viability, T/C: 3.59%
[6]
  viability, T/C: 4.75%
[7]
  viability, T/C: 12.1%
[8]
  viability, T/C: 8.08%
[9]
  viability, T/C: 5.96%
[10]
  viability, T/C: 4.7%
[11]
  viability, T/C: 4.74%
[12]
  viability, T/C: 5.17%
[13]
  viability, T/C: 9.15%
[14]
  viability, T/C: 6.95%
[15]
  viability, T/C: 4.4%
[16]
  viability, T/C: 3.81%
[17]
  viability, T/C: 3.74%
[18]
  viability, T/C: 3.64%
[19]
  viability, T/C: 8.22%
[20]
  viability, T/C: 5.86%
[21]
  viability, T/C: 5.7%
[22]
  viability, T/C: 3.75%
[23]
  viability, T/C: 4.37%
[24]
  viability, T/C: 3.87%
[25]
  viability, T/C: 7.37%
[26]
  viability, T/C: 6.35%
[27]
  viability, T/C: 4.21%
[28]
  viability, T/C: 4.09%
[29]
  viability, T/C: 4.08%
[30]
  viability, T/C: 3.28%
[31]
  viability, T/C: 7.46%
[32]
  viability, T/C: 7.12%
[33]
  viability, T/C: 6.04%
[34]
  viability, T/C: 4.71%
[35]
  viability, T/C: 4.06%
[36]
  viability, T/C: 4.08%

## NC1c2ccccc2OC12CCN(c1cnc3c(N4CCCc5ncccc54)n[nH]c3n1)CC2 (stereo unspecified) + C=CC(=O)N1CCN(c2nc(OCC3CCCN3C)nc3c(F)c(-c4nc(N)cc(C)c4C(F)(F)F)c(Cl)cc23)C(C)C1
Second compound 0.00316 µM
  IC50: < 31.6 nM
Second compound 0.01 µM
  IC50: < 31.6 nM
Second compound 0.0316 µM
  IC50: < 31.6 nM
Second compound 0.1 µM
  IC50: < 31.6 nM
Second compound 0.316 µM
  IC50: < 31.6 nM
Second compound 1 µM
  IC50: < 31.6 nM
[1]
  viability, T/C: 7.58%
[2]
  viability, T/C: 6.46%
[3]
  viability, T/C: 4.66%
[4]
  viability, T/C: 5.77%
[5]
  viability, T/C: 4.88%
[6]
  viability, T/C: 5.36%
[7]
  viability, T/C: 7.19%
[8]
  viability, T/C: 5.33%
[9]
  viability, T/C: 4.69%
[10]
  viability, T/C: 4.12%
[11]
  viability, T/C: 4.26%
[12]
  viability, T/C: 4.5%
[13]
  viability, T/C: 6.59%
[14]
  viability, T/C: 6.76%
[15]
  viability, T/C: 4.64%
[16]
  viability, T/C: 4.27%
[17]
  viability, T/C: 4.76%
[18]
  viability, T/C: 5.5%
[19]
  viability, T/C: 5.65%
[20]
  viability, T/C: 6.03%
[21]
  viability, T/C: 4.11%
[22]
  viability, T/C: 3.86%
[23]
  viability, T/C: 4.33%
[24]
  viability, T/C: 4.71%
[25]
  viability, T/C: 6.32%
[26]
  viability, T/C: 6.11%
[27]
  viability, T/C: 4.53%
[28]
  viability, T/C: 4.12%
[29]
  viability, T/C: 6.47%
[30]
  viability, T/C: 5.1%
[31]
  viability, T/C: 5.95%
[32]
  viability, T/C: 6.16%
[33]
  viability, T/C: 5%
[34]
  viability, T/C: 4.63%
[35]
  viability, T/C: 5.74%
[36]
  viability, T/C: 5.91%

## Nc1ccn(C2OC(CO)C(O)C2(F)F)c(=O)n1 (stereo unspecified) + C=CC(=O)N1CCN(c2nc(OCC3CCCN3C)nc3c(F)c(-c4nc(N)cc(C)c4C(F)(F)F)c(Cl)cc23)C(C)C1
Second compound 0.00316 µM
  IC50: < 3.16 nM
Second compound 0.01 µM
  IC50: < 3.16 nM
Second compound 0.0316 µM
  IC50: < 3.16 nM
Second compound 0.1 µM
  IC50: < 3.16 nM
Second compound 0.316 µM
  IC50: < 3.16 nM
Second compound 1 µM
  IC50: < 3.16 nM
Second compound 0.00316 µM, first compound 0.00316 µM
  viability, T/C: 18.1%
Second compound 0.00316 µM, first compound 0.01 µM
  viability, T/C: 16.6%
[1]
  viability, T/C: 14.9%
[2]
  viability, T/C: 14.7%
[3]
  viability, T/C: 17.8%
[4]
  viability, T/C: 17.2%
Second compound 0.01 µM, first compound 0.00316 µM
  viability, T/C: 16.1%
Second compound 0.01 µM, first compound 0.01 µM
  viability, T/C: 12.8%
[7]
  viability, T/C: 9.45%
[8]
  viability, T/C: 11.5%
[9]
  viability, T/C: 9.75%
[10]
  viability, T/C: 11.1%
Second compound 0.0316 µM, first compound 0.00316 µM
  viability, T/C: 11%
Second compound 0.0316 µM, first compound 0.01 µM
  viability, T/C: 12.7%
[13]
  viability, T/C: 10.5%
[14]
  viability, T/C: 9.28%
[15]
  viability, T/C: 11%
[16]
  viability, T/C: 10.4%
Second compound 0.1 µM, first compound 0.00316 µM
  viability, T/C: 9.91%
Second compound 0.1 µM, first compound 0.01 µM
  viability, T/C: 9.83%
[19]
  viability, T/C: 9.05%
[20]
  viability, T/C: 9.1%
[21]
  viability, T/C: 11.7%
[22]
  viability, T/C: 11.4%
Second compound 0.316 µM, first compound 0.00316 µM
  viability, T/C: 11%
Second compound 0.316 µM, first compound 0.01 µM
  viability, T/C: 10.5%
[25]
  viability, T/C: 11%
[26]
  viability, T/C: 8.77%
[27]
  viability, T/C: 11.1%
[28]
  viability, T/C: 8.63%
Second compound 1 µM, first compound 0.00316 µM
  viability, T/C: 10.2%
Second compound 1 µM, first compound 0.01 µM
  viability, T/C: 11.9%
[31]
  viability, T/C: 10.3%
[32]
  viability, T/C: 11.7%
[33]
  viability, T/C: 11.7%
[34]
  viability, T/C: 8.61%

Source: PubChem BioAssay AID2060893 (Molecular Pharmacology Branch, DTP, NCI, 2025)
